Consider 3 molecules from patent US12171229B2, “Heteroaryl-triazole and heteroaryl-tetrazole compounds as pesticides” (BAYER AKTIENGESELLSCHAFT, priority 2018, dated 2024).

Holding throughout (format): in vivo
In one assay the test system is Phaedon cochleariae. Description: Phaedon cochleariae spray test. As to conditions: foliar, 168 h, after 7 days, larvae on Chinese cabbage leaf disks. The protocol:
Phaedon Cochleariae—Spray Test
(§1) To produce a suitable preparation of active compound, 1 part by weight of active compound is mixed with the stated amount of solvents and is diluted with water, containing an emulsifier concentration of 1000 ppm, to the desired concentration. Further test concentrations are prepared by dilution with emulsifier containing water.
Chinese cabbage (Brassica pekinensis) leaf disks are sprayed with a preparation of the active ingredient of the desired concentration. Once dry, the leaf disks are infested with mustard beetle larvae (Phaedon cochleariae).
After 7 days mortality in % is determined. 100% means all beetle larvae have been killed and 0% means none of the beetle larvae have been killed.

The next assay deals with Tetranychus urticae. Description: Tetranychus urticae spray test (OP-resistant). As to conditions: foliar, 144 h, after 6 days, French bean leaf disks. The protocol: Tetranychus urticae—Spray Test (OP-Resistant)
as §1
French bean (Phaseolus vulgaris) leaf disks infected with all instars of the two spotted spidermite (Tetranychus urticae), are sprayed with a preparation of the active ingredient of the desired concentration.
After 6 days mortality in % is determined. 100% means all spider mites have been killed and 0% means none of the spider mites have been killed.

In the next assay the test system is Boophilus microplus. Description: Boophilus microplus injection test. As to conditions: Rhipicephalus microplus, 168 h; 20 μg/animal injected into the abdomen; adult engorged female ticks; egg deposition after 7 days; read-out: efficacy (infertile eggs). A digest of the protocol:
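Five engorged adult female ticks received a 1 μl abdominal injection of compound in DMSO. They were then held in a climate chamber, with egg deposition checked after 7 days. Unclear eggs were kept until hatching at about 42 days, and efficacy was scored as the percentage of infertile eggs.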

For a further assay, the system named is Myzus persicae. Description: Myzus persicae oral test. As to conditions: 120 h, after 5 days. The procedure, abridged: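 Aphid mortality (%) was recorded 5 days after a mixed Myzus persicae population began sucking, through parafilm, on compound solutions (acetone stock diluted with water) combined with sugar-supplemented IPL41 medium.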
Assay [1] deals with Ctenocephalides felis. Description: Ctenocephalides felis in-vitro contact test, adult cat flea. As to conditions: 5 μg/cm^2 (=500 g/ha), after 48 hours, adult cat fleas, read-out: efficacy (fleas dead or moribund). The procedure, abridged: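 Compound in acetone coated onto inner walls of glass tubes, e.g. 900 ppm giving 5 μg/cm². After drying, 5–10 adult C. felis added per tube and held at room temperature. At 48 h, fleas unable to escape a 45–50 °C heating plate within 5 min scored dead/moribund, giving % efficacy.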

A further assay concerns Spodoptera frugiperda. Description: Spodoptera frugiperda spray test. As to conditions: 168 h, after 7 days, larvae on maize leaf sections. The procedure, abridged:
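Compound mixed with solvent, diluted with 1000 ppm emulsifier water to test concentrations; sprayed on maize leaf pieces; dried; larvae added; mortality (%) scored at 7 d.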

For another assay, the system named is Diabrotica balteata. The assay can be described thus: Diabrotica balteata spray test. As to conditions: Diabrotica balteata, in Triticum aestivum, 168 h, after 7 days, larvae on wheat seeds, read-out: efficacy (seedlings grown up); for pest or weed control at 80 µg/disc, 250 g/ha: 80 μg/well (=250 g/ha); for pest or weed control at 160 µg/disc, 500 g/ha: 160 μg/well (=500 g/ha). A digest of the protocol: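 Germinated wheat seeds (5 per well, 1 day on agar) sprayed with compound diluted in water containing 1000 ppm emulsifier, then infested with 10–20 D. balteata larvae. Efficacy scored after 7 days: 100% = seedlings like untreated uninfested control, 0% = no seedlings grown.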

Assay [2] concerns Ctenocephalides felis. The assay can be described thus: Ctenocephalides felis oral test. As to conditions: 48 h, 100 ppm in cattle blood, after 2 days, adult unfed cat fleas. The procedure, abridged: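 About 20 unfed adult cat fleas feed through parafilm on cattle blood dosed with compound from a DMSO stock. Blood chamber at 37° C, fleas at room temperature. Percent mortality scored after 2 days.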

The subject of assay [3] is Musca domestica strain WHO-N. Description: Musca domestica test (MUSCDO surface treatment & contact assay). As to conditions: 24 hours after contact, read-out: efficacy (mortality); for mortality at 20 mg/m2: surface concentration 20 mg/m^2, exposure 30 minutes. The protocol:
Musca domestica test (MUSCDO surface treatment & contact assay)
(§2) Solvent: Aceton+2000 ppm rapeseed oil methyl ester (RME)
In order to produce a sufficient, active ingredient containing solution it is necessary to solve the test compound in the solvent-mix (acetone at 2 mg/ml/RME 2000 ppm). This solution is pipetted onto a glazed tile and after evaporation of the acetone, adult flies of the species Musca domestica strain WHO-N are placed onto the dried surface. The exposure time is 30 minutes.
Mortality in percent (%) is determined 24 hours after contact of the insects to the treated surface. 100% morality means that all tested insects are dead, whereas 0% means that no insect died.

In the next assay the test system is Rhipicephalus sanguineus. The assay can be described thus: Rhipicephalus sanguineus in-vitro contact test, adult brown dog ticks. As to conditions: 5 μg/cm^2 (=500 g/ha), after 48 hours, read-out: efficacy (ticks dead or moribund). The method, then: Rhipicephalus Sanguineus—In-Vitro Contact Tests with Adult Brown Doe Ticks
9 mg compound is solved in 1 ml acetone and diluted with acetone to the desired concentration. 250 μl of the test solution is filled in 25 ml glass test tubes and homogeneously distributed on the inner walls by rotation and tilting on a shaking device (2 h at 30 rpm). With a compound concentration of 900 ppm, an inner surface of 44.7 cm^2 and a homogeneous distribution, a dose of 5 μg/cm^2 is achieved.
After the solvent has evaporated, each test tube is filled with 5-10 adult brown dog ticks (Rhipicephalus sanguineus), closed with a perforated lid and incubated in a lying position at room temperature and relative humidity. After 48 hours efficacy is determined. The ticks are patted on the ground of the tubes and are incubated on a heating plate at 45-50° C. for at most 5 minutes. Immotile or uncoordinated moving ticks, which are not able to escape the heat by climbing upwards, are marked as dead or moribund.
An efficacy of 100% means all ticks are dead or moribund; 0% means no ticks are dead or moribund.

Another assay has as its system Nezara viridula. The assay can be described thus: Nezara viridula spray test. As to conditions: 96 h, after 4 days, larvae on barley plants. A digest of the protocol: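 Barley plants infested with Nezara viridula larvae were sprayed with compound diluted in water containing 1000 ppm emulsifier. Percent mortality was scored 4 days later, where 100% means all bugs killed and 0% none.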

Assay [4] concerns Aedes aegypti strain MONHEIM. The assay can be described thus: Aedes aegypti test (AEDSAE surface treatment & contact assay). As to conditions: 24 hours after contact, read-out: efficacy (mortality); for mortality at 4 mg/m2: surface concentration 4 mg/m^2, exposure 30 minutes; for mortality at 20 mg/m2: surface concentration 20 mg/m^2, exposure 30 minutes. The procedure, abridged:
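Compound dissolved in acetone (2 mg/ml) with 2000 ppm rapeseed oil methyl ester, applied to glazed tile and dried; adult strain MONHEIM mosquitoes exposed 30 minutes. Percent mortality scored 24 hours after contact.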

A further assay has as its system Meloidogyne incognita. The assay can be described thus: Meloidogyne incognita test. As to conditions: 20 ppm; after 14 days; salad seedlings. The method, then:
Meloidogyne incognita—Test Solvent: 125.0 parts by weight of acetone To produce a suitable preparation of active compound, 1 part by weight of active compound is mixed with the stated amount of solvent, and the concentrate is diluted with water to the desired concentration. Vessels are filled with sand, a solution of the active ingredient, a suspension containing eggs and larvae of the southern root-knot nematode (Meloidogyne incognita) and salad seeds. The salad seeds germinate and the seedlings grow. Galls develop in the roots. After 14 days the nematicidal activity is determined on the basis of the percentage of gall formation. 100% means no galls were found and 0% means the number of galls found on the roots of the treated plants was equal to that in untreated control plants.

Assay [5] relates to Culex quinquefasciatus strain P00. Description: Culex quinquefasciatus test (CULXFA surface treatment & contact assay). As to conditions: 24 hours after contact, read-out: efficacy (mortality). The procedure, abridged:
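Compound dissolved in acetone (2 mg/ml) with 2000 ppm rapeseed oil methyl ester, applied to glazed tile and dried; adult C. quinquefasciatus strain P00 exposed to surface for 30 minutes. Mortality (%) scored 24 hours after contact.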

Assay [6] relates to Blattella germanica strain PAULINIA
Description: whole plant or invertebrate. As to conditions: read-out: efficacy (mortality). The method, then:
Blattella Germanica Test (BLTTGE Surface Treatment & Contact Assay)
as §2
In order to produce a sufficient, active ingredient containing solution it is necessary to solve the test compound in the solvent-mix (acetone at 2 mg/ml/RME 2000 ppm). This solution is pipetted onto a glazed tile and after evaporation of the acetone, adult animals of the species Blattella germanica strain PAULINIA are placed onto the dried surface. The exposure time is 30 minutes.
Mortality in percent (%) is determined 24 hours after contact of the insects to the treated surface. 100% mortality means that all tested insects are dead, whereas 0% means that no insect died.

[7] abbreviates: surface concentration 4 mg/m^2, exposure 30 minutes.

The term mortality denotes the share of the test organisms that died. Consider `CC(c1ncnn1-c1nccs1)N(CC1CC1)C(=O)c1cc(Cl)cc(C(F)(F)F)c1` (stereo not drawn) [Example I-003], for which the mortality at 500 g/ha in the assay with Phaedon cochleariae came to 100%; in the assay with Tetranychus urticae, 90%; in the assay with Spodoptera frugiperda, 100%. For the same molecule, the pest or weed control at 0.02 mg in the assay on Boophilus microplus stood at 100%. This molecule registered a mortality at 20 ppm in the assay with Myzus persicae (20 ppm) of 90%. Further, in the assay with Ctenocephalides felis [1], the pest or weed control at 5 µg/cm2 worked out at 100%. For the same molecule, in the assay on Diabrotica balteata, the pest or weed control at 80 µg/disc, 250 g/ha stood at 100%. Also, in the assay with Diabrotica balteata, the pest or weed control at 160 µg/disc, 500 g/ha was found to be 100%. Further, in the assay on Ctenocephalides felis [2], the mortality at 100 ppm turned out to be 100%.

Turning to `C[C@H](NC(=O)c1cc(Cl)cc(C(F)(F)F)c1)c1ncnn1-c1ncc(C#N)cn1` [Example I-010], the mortality at 20 mg/m2 in assay [3] and in assay [4] was 90 to 100% each time. Moreover, the pest or weed control at 5 µg/cm2 with Rhipicephalus sanguineus and in the assay with Ctenocephalides felis [1] was 100% in each case. The mortality at 100 g/ha with Nezara viridula (100 g/ha) and in the assay with Spodoptera frugiperda was 100% each time. Further, the mortality at 500 g/ha in the assay on Nezara viridula and in the assay on Spodoptera frugiperda was 100% in each case. Further, the mortality at 4 mg/m2 in assay [4] fell in the range of 90 to 100%. Further, the pest or weed control at 0.02 mg in the assay with Boophilus microplus came to 100%. Besides, in the assay with Myzus persicae (4 ppm), the mortality at 4 ppm was 100%. For the same molecule, in the assay on Meloidogyne incognita, the “nematicidal activity (gall formation)” value was 100%.

For the molecule `C[C@H](NC(=O)c1cc(Cl)cc(C(F)(F)F)c1)c1ncnn1-c1ncc(OC(F)(F)F)cn1` [Example I-011], the mortality at 4 mg/m2 in assay [3] (setting [7]), in assay [5] (setting [7]) and in assay [4] was 90 to 100% throughout. For the same molecule, the mortality at 20 mg/m2 in assay [3] lay in the range of 90 to 100%; in assay [5] (surface concentration 20 mg/m^2, exposure 30 minutes), 90 to 100%; in assay [6], 80 to 100%; in [4], 90 to 100%. In addition, the mortality at 500 g/ha in the assay with Nezara viridula and in the assay with Spodoptera frugiperda was 100% each time. The pest or weed control at 0.02 mg in the assay with Boophilus microplus is 100%. In the assay on Ctenocephalides felis [1], the pest or weed control at 5 µg/cm2 amounted to 100%. In addition, the mortality at 100 g/ha in the assay on Spodoptera frugiperda stood at 100%. Moreover, the pest or weed control at 80 µg/disc, 250 g/ha with Diabrotica balteata was 100%. Besides, the pest or weed control at 160 µg/disc, 500 g/ha in the assay with Diabrotica balteata is 100%. The molecule further gave a mortality at 100 ppm in the assay with Ctenocephalides felis [2] of 100%.
